Test results reported in PubChem BioAssay (NCI).
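Tested at 5 concentrations; 48 h exposure; 96-well plates; endpoints linearly interpolated, else capped at highest concentration. GI50 marks 50% less growth. TGI: concentration producing complete growth inhibition.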

Columns and labels:
Assay in all cases: NCI-60 cell line screen, 48 h
EKVX NSCLC = test system: EKVX NSCLC
NCI/ADR-RES ovarian = test system: NCI/ADR-RES ovarian
NCI-H522 lung = test system: NCI-H522 lung
HL-60(TB) leukemia = test system: HL-60(TB) leukemia
HOP-92 NSCLC = test system: HOP-92 NSCLC
SF-539 CNS = test system: SF-539 CNS
SNB-19 CNS = test system: SNB-19 CNS
OVCAR-8 ovarian = test system: OVCAR-8 ovarian
HCC-2998 colon = test system: HCC-2998 colon
UACC-62 melanoma = test system: UACC-62 melanoma

Compound | GI50 (EKVX NSCLC) [nM] | TGI (EKVX NSCLC) [nM] | GI50 (NCI/ADR-RES ovarian) [nM] | TGI (NCI/ADR-RES ovarian) [nM] | GI50 (NCI-H522 lung) [nM] | TGI (NCI-H522 lung) [nM] | GI50 (HL-60(TB) leukemia) [nM] | GI50 (HOP-92 NSCLC) [nM] | TGI (HOP-92 NSCLC) [nM] | GI50 (SF-539 CNS) [nM] | TGI (SF-539 CNS) [nM] | GI50 (SNB-19 CNS) [nM] | TGI (SNB-19 CNS) [nM] | GI50 (OVCAR-8 ovarian) [nM] | TGI (OVCAR-8 ovarian) [nM] | GI50 (HCC-2998 colon) [nM] | TGI (HCC-2998 colon) [nM] | GI50 (UACC-62 melanoma) [nM] | TGI (UACC-62 melanoma) [nM] | TGI (HL-60(TB) leukemia) [nM]
COc1ccc(C2CC(=O)c3c(O)c(OC)c(OC)c(OC)c3O2)cc1O (centres undefined) | 530 | > 100000 | 61.6 | > 100000 | 38.6 | 775 | 26.3 | 518 | 82400 | 66.6 | > 100000 | 83.3 | > 100000 | 175 | > 57100 | 999 | > 100000 | 504 | > 73700 | –
C[C@@H]1OCC2(CCN(c3cnc(Sc4ccnc(N)c4Cl)c(N)n3)CC2)[C@@H]1N | 573 | > 100000 | > 100000 | > 100000 | 7980 | > 100000 | > 100000 | 46.9 | 788 | 24200 | > 100000 | > 100000 | > 100000 | > 89500 | > 100000 | > 100000 | > 100000 | > 100000 | > 100000 | > 100000
Nc1ccc(-c2ccc(-c3nc4cc(Cl)c(Cl)cc4[nH]3)cc2)cc1 | 11600 | > 100000 | 3600 | > 79200 | 1030 | > 80900 | 8220 | 23000 | 65000 | 1380 | > 51500 | 23700 | > 100000 | 14500 | > 92900 | 100 | 426 | < 21.5 | > 45000 | > 100000
Nc1c2ccccc2nc2ccccc12 (tested in a mixture with another compound) | 2010 | 7650 | 1740 | 6000 | 1170 | 2730 | 3240 | 1840 | 6980 | 2440 | 8260 | 2640 | 15700 | 891 | 6440 | 1850 | 4600 | 1620 | 3740 | 8040
Nc1nc(-c2ccccc2)cc(-c2ccc(Cl)cc2)c1-c1nc2ccccc2o1 | 14000 | 27700 | 11500 | 43400 | 13500 | 30600 | 4420 | 1700 | 6830 | 17500 | 32300 | 17700 | 37900 | 18700 | 61200 | 10300 | 25800 | 16600 | 30600 | 17000
C/C(=C\c1ccn(-c2ccc(N)cc2F)n1)[C@@H]1C[C@@H]2O[C@]2(C)CCC[C@H](C)[C@H](O)[C@@H](C)C(=O)C(C)(C)[C@@H](O)CC(=O)O1 | 360 | > 50000 | 92.1 | 1190 | 25.5 | 171 | 17.4 | 6510 | > 50000 | 35.2 | 296 | 242 | > 50000 | 40.8 | > 50000 | 34.7 | > 10600 | 91.4 | > 50000 | 859
COc1cc(N2CCC(N3CCN(C)CC3)CC2)ccc1Nc1ncc(Cl)c(Nc2ccccc2S(=O)(=O)C(C)C)n1 | 489 | 11500 | 1290 | 5750 | 525 | 2030 | 327 | 47.6 | 433 | 1390 | 2740 | 2070 | 12200 | 2100 | 7760 | 1070 | 2390 | 1180 | 3390 | 1400
COc1cc2c3c(n(CCCN4CCCC(O)C4)c(=O)c2cc1OC)-c1cc2c(cc1C3=O)OCO2 (centres undefined) | 1260 | 2540 | 50.3 | 1060 | 2340 | 8910 | 597 | 31.2 | 901 | < 5 | 38.4 | 600 | 10500 | 587 | 1450 | 76.3 | 1050 | 5010 | 12800 | 1320
CCN(CC)CC[n+]1cc2cc(OC)c(OC)cc2c2ccc3cc4c(cc3c21)OCO4 | 967 | 4040 | 3720 | 22000 | 255 | 1050 | 1420 | 1370 | 3880 | 1120 | 3160 | 452 | 1770 | 314 | 2110 | 725 | 2150 | 1220 | 4890 | 4690
